Experimental data as given in patent publication US11028127B2, “Peptides capable of reactivating p53 mutants” (Yeda Research and Development Co. Ltd., priority 2013, dated 2021).

Legend:
Type in all cases: cell-based
[1] = system: Mut-p53-expressing human cancer cell lines; assay: Crystal violet viability assay on further cell lines; conditions: cell line not stated
Procedure: Cells were cultured in 96 wells plates with 2500-4000 cells/well in 0.1 ml and incubated overnight at 37° C. in order to adhere to the plate. Serial dilutions of different peptides (0.5 μg/ml) were added in 0.1 ml aliquots and the plates incubated for additional 48 h at 37° C. Then medium was removed and cell lysis was determined by staining the cells with crystal violet (0.5%) in methanol/water (1:4, v/v), 50 μl each well, for 10 min, followed by 3 washes with PBS. Afterwards, 10% acetic acid (50 μl) was added to each well and shaken for 10 min. Then, automatic plate reading was performed at 595 nm.
An important indication for the reactivating peptides activity is their effect in-vivo on cancer cells that express Mut-p53. In particular, reactivating peptides that can cause specifically Mut-p53-dependent death of cancer cells, with minimal toxic effects on normal cells are desired. A crystal-violet based viability assay, in which crystal-violet is employed to stain cells that adhere to the plate and therefore the amount of dye is proportional to cell number was used to determine the effect of the various test peptides on Mut-p53-dependent death.
Cells were plated in 96-well plates, at calibrated density that allows them to grow for 48 hours without reaching confluence. Peptides are added 6 hours later. […]

R249S p53 = target: T1, R249S p53 (Homo sapiens, UniProt P04637, R249S); assay: TK-RGC-luc luciferase reporter assay in H1299 p53−/− cells; conditions: peptides added 24 hours after transfection, read at 48 hours
T1 construct: expressed in transfected cells; host or cells: H1299 p53-/- cells, transient transfection
Procedure: (§1) FIG. 12 is a bar graph illustrating the relative luciferase activity (cLuc/gLuc) as measured in the various tested samples. Transient transfection of H1299 p53^−/− cells was performed with plasmids expressing WT p53, R175H p53, R249S p53 or empty vector as control, together with TK-RGC-luc, where luciferase expression is under control of a tandem array of multiple p53-responsive elements. 24 hours after transfection, cells were treated with the test peptides. 48 hours after transfection, a sample of the culture medium was taken for bioluminescence measurements.
(§2) The oligonucleotide (RGC-W) that has the sequence 5′-[…]-3′ (SEQ ID NO:362), and the oligonucleotide mutant RGC oligonucleotide (RGC-M) that has the sequence 5′-[…]-3′ (SEQ ID NO:363), are both derived from Kern et al. (Kern, S. E., et al., Identification of p53 as a sequence-specific DNA-binding protein. Science, 1991. 252(5013): p. 1708-11), and serve as a consensus binding sites for WT p53.
(§3) These motifs were cloned into the KPN and Eco53IK sites in pCLuc Mini-TK 2 Vector (NEB, Cat No. N0324S ). The Luciferase construct was used to assess transcriptional activation of p53 in test cells.
(§4) H1299 p53-null cells were cultured overnight and then transfected with the luciferase constructs using MaxFect Transfection Agent (Mediatech) according to the manufacturer's protocol. Prior to the transfection, cell medium was exchanged to OPTI-MEM.
(§5) The cells were treated with different peptides 24 hours after transfection. After additional 24 hours, growth medium was collected to 96 black plates: 40 μl for Cluc assay, and 20 μl for Gluc assay. Assay was performed using Turner BioSystems Modulus Microplate. Value was calculated by Cluc/gluc/NT (non-treated cells).
(§6) As additional screening strategy used to identify reactivating peptides was performed in vivo and is based on a reporter gene assay. It measures p53 transcriptional activity by quantifying the activity of a reporter gene, placed under the control of a promoter containing 17 repeats of a p53 consensus binding site (RGC). The luciferase assay is performed on living cells and therefore provides an indication on the effect of test peptides on Mut-p53 function in the context of intact cells.
(§7) For the in vivo luciferase based screening, H1299 cells were used. Transient transfection of these p53^−/− cells was performed with vectors expressing WT p53, R175H p53, R249S p53 or empty vector as control (Suad, O., et al., Structural basis of restoring sequence-specific DNA binding and transactivation to mutant p53 by suppressor mutations. J. Mol. Biol., 2009. 385(1): p. 249-65). Cells were also co-transfected with TK-RGC-luc (CAT. No. NEB, N0324S). 24 hours after transfection, cells were treated with the test peptides. […]

R175H p53 = target: T2, R175H p53 (Homo sapiens, UniProt P04637, R175H); assay: as above; conditions: peptides added 24 hours after transfection, read at 48 hours
T2 construct: a hot spot full length mutant p53 Mut-p53 R175H (R175H p53); expressed in transfected cells; host or cells: H1299 p53-/- cells, transient transfection
Procedure: as §1, §2, §3, §4, §5, §6, §7

YRRLLIGMMWRRRRRRRRRRR [pCAP-68]
effect on cell viability [1]: massive cell death
transcription from TK-RGC-luc in the presence of R249S p53 (R249S p53): induce transcription from TK-RGC-luc
transcription from TK-RGC-luc in the presence of R175H p53 (R175H p53): induce transcription from TK-RGC-luc
